Values after ≈ are worked out from the molar mass of the structure shown. Active and inactive are the calls of the source. The calls are words filed in the database; no cut-off is given here.
How the values were obtained:
[1] = Metabolic stability in rat plasma at 1 uM after 4 hrs; assay type: ADME, cell-free; conditions: read-out: Stability
L5178Y [2] = assay: Genotoxicity in mouse L5178Y cells after 23 hrs in absence of S9 fraction by micronucleus test; assay type: toxicity, cell-based
Escherichia coli [3] = assay: Inhibition of DNA synthesis in tolC-deficient Escherichia coli K-12 MG1655 at MIC to 8 times MIC after 5 to 120 mins by [methyl-3H]-thymidine incorporation assay; assay type: functional, organism-based; conditions: K-12 substr. MG1655
Klebsiella pneumoniae [4] = assay: Antibacterial activity against Klebsiella pneumoniae 1161486 harboring GyrA S83F/D87V/ParC S80I triple mutant after 20 to 22 hrs; assay type: functional
Klebsiella pneumoniae [5] = assay: Resistance factor, ratio of MIC for Klebsiella pneumoniae 1161486 harboring GyrA S83F/D87V/ParC S80I triple mutant to MIC for wild type Klebsiella pneumoniae 1161486; assay type: functional
Escherichia coli [6] = assay: Antibacterial activity against hyperpermeable Escherichia coli D22 harboring LpxC mutant after 20 to 22 hrs
Escherichia coli [7] = assay: Antibacterial activity against Escherichia coli K-12 MG1655 after 20 to 22 hrs; conditions: K-12 substr. MG1655
[8] = Drug metabolism in rat liver microsomes at 5 uM after 20 mins in presence of NADPH; assay type: ADME, microsome; conditions: read-out: Drug metabolism
Staphylococcus aureus [9] = assay: Resistance factor, ratio of MIC for Staphylococcus aureus RN4220 harboring GyrB D437N mutant to MIC for wild type Staphylococcus aureus RN4220; assay type: functional
[10] = Drug metabolism in mouse liver microsomes at 5 uM after 20 mins in presence of NADPH; assay type: ADME, microsome; conditions: read-out: Drug metabolism
Staphylococcus aureus [11] = assay: Antibacterial activity against Staphylococcus aureus RN4220 harboring GyrA D83N mutant after 20 to 22 hrs; assay type: functional
Staphylococcus aureus [12] = assay: Resistance factor, ratio of MIC for Staphylococcus aureus RN4220 harboring ParC S80F/GyrA S84L double mutant to MIC for wild type Staphylococcus aureus RN4220; assay type: functional
Escherichia coli [13] = assay: Antibacterial activity against tolC-deficient fluoroquinolones-sensitive Escherichia coli JC7623 clinical isolate harboring wild type DNA gyrase after 20 to 22 hrs
Pseudomonas aeruginosa [14] = assay: Antibacterial activity against Pseudomonas aeruginosa PAO1 after 20 to 22 hrs; assay type: functional
Klebsiella pneumoniae [15] = assay: Resistance factor, ratio of MIC for Klebsiella pneumoniae 1161486 harboring GyrA S83I/ParC S80I double mutant to MIC for wild type Klebsiella pneumoniae 1161486; assay type: functional
Cytochrome P450 3A4 [16] = target: T1, Cytochrome P450 3A4 (Homo sapiens, UniProt P08684); assay: Inhibition of CYP3A4-mediated midazolam metabolism in human liver microsomes
Klebsiella pneumoniae [17] = assay: Antibacterial activity against Klebsiella pneumoniae 1161486 harboring GyrA S83I/ParC S80I double mutant after 20 to 22 hrs; assay type: functional
Pseudomonas aeruginosa [18] = assay: Antibacterial activity against Pseudomonas aeruginosa PAO750 harboring mexAB-oprM/mexCD-oprJ/mexEF-oprN/mexXY/opmH/mexJK/pscC deletion mutant after 20 to 22 hrs; assay type: functional
Acinetobacter baumannii [19] = assay: Antibacterial activity against Acinetobacter baumannii BM4652 harboring adeABC/adeIJK deletion mutant after 20 to 22 hrs; assay type: functional
Staphylococcus aureus [20] = assay: Resistance factor, ratio of MIC for Staphylococcus aureus RN4220 harboring GyrA D83N mutant to MIC for wild type Staphylococcus aureus RN4220; assay type: functional
Staphylococcus aureus [21] = assay: Antibacterial activity against Staphylococcus aureus RN4220 harboring GyrB D437N mutant after 20 to 22 hrs; assay type: functional
Klebsiella pneumoniae [22] = assay: Antibacterial activity against tolC-deficient Klebsiella pneumoniae 1161486a after 20 to 22 hrs; assay type: functional
[23] = Cytotoxicity against human HepG2 cells assessed as decrease in cell viability after 40 hrs by Celltiter Glo assay
Klebsiella pneumoniae [24] = assay: Resistance factor, ratio of MIC for Klebsiella pneumoniae 1161486 harboring GyrA S83I mutant to MIC for wild type Klebsiella pneumoniae 1161486; assay type: functional
Escherichia coli [25] = assay: Resistance factor, ratio of MIC for 4 times MIC-treated tolC-deficient Escherichia coli ATCC 25922 harboring DR76_3503 Q47H mutant to MIC for tolC-deficient Escherichia coli ATCC 25922; assay type: functional
Staphylococcus aureus [26] = assay: Antibacterial activity against methicillin-resistant Staphylococcus aureus ATCC 33592 after 20 to 22 hrs in presence of 50% mouse serum; assay type: functional, organism-based
Staphylococcus aureus [27] = assay: Antibacterial activity against methicillin-resistant Staphylococcus aureus ATCC 33592 after 20 to 22 hrs in presence of 50% calf fetal serum; assay type: functional, organism-based
Escherichia coli [28] = assay: Antibacterial activity against tolC-deficient Escherichia coli K-12 MG1655 after 20 to 22 hrs; assay type: functional; conditions: K-12 substr. MG1655
Escherichia coli [29] = assay: Resistance factor, ratio of MIC for Escherichia coli K-12 MG1655 harboring GyrA S83L/D87N/ParC S80I triple mutant to MIC for wild type Escherichia coli K-12 MG1655; assay type: functional, K-12 substr. MG1655
Cytochrome P450 3A4 [30] = target: T1, Cytochrome P450 3A4; assay: Inhibition of CYP3A4-mediated testosterone metabolism in human liver microsomes
[31] = Apparent permeability across human Caco2 cells; conditions: Caco-2
Staphylococcus aureus [32] = assay: Antibacterial activity against Staphylococcus aureus RN4220 harboring ParC S80F mutant after 20 to 22 hrs; assay type: functional
DNA gyrase = DNA gyrase (Escherichia coli, UniProt P0AES4+P0AES6)
Description: Inhibition of Escherichia coli DNA gyrase A2B2 using relaxed pNO1 as substrate

Escherichia coli [33] = assay: Resistance factor, ratio of MIC for 4 times MIC-treated tolC-deficient Escherichia coli ATCC 25922 to MIC for tolC-deficient Escherichia coli ATCC 25922; assay type: functional
Staphylococcus aureus [34] = assay: Antibacterial activity against methicillin-resistant Staphylococcus aureus ATCC 33592 after 20 to 22 hrs; assay type: functional
[35] = Drug metabolism in human liver microsomes at 5 uM after 20 mins in presence of NADPH; assay type: ADME, microsome; conditions: read-out: Drug metabolism
L5178Y [36] = assay: Genotoxicity in mouse L5178Y cells after 3 hrs in presence of S9 fraction by micronucleus test; assay type: toxicity, cell-based; conditions: s9, 3 h
Klebsiella pneumoniae [37] = assay: Antibacterial activity against wild type Klebsiella pneumoniae 1161486 after 20 to 22 hrs; assay type: functional
[38] = Thermodynamic aqueous solubility of the compound at pH 7.4; conditions: aqueous solution
Acinetobacter baumannii [39] = assay: Antibacterial activity against Acinetobacter baumannii BM4454 after 20 to 22 hrs; assay type: functional
Escherichia coli [40] = assay: Antibacterial activity against Escherichia coli K-12 MG1655 harboring GyrA S83L/D87N/ParC S80I triple mutant after 20 to 22 hrs; assay type: functional; conditions: K-12 substr. MG1655
Staphylococcus aureus [41] = assay: Antibacterial activity against wild type Staphylococcus aureus RN4220 after 20 to 22 hrs; assay type: functional
Staphylococcus aureus [42] = assay: Antibacterial activity against Staphylococcus aureus RN4220 harboring GyrA D83N/ParC D79N double mutant after 20 to 22 hrs; assay type: functional
Escherichia coli [43] = assay: Antibacterial activity against tolC-deficient fluoroquinolones-resistant Escherichia coli W4753 clinical isolate harboring DNA gyrase S83L/D87N/ParC S80I/ParE S458A mutant after 20 to 22 hrs
[44] = Metabolic stability in mouse plasma at 1 uM after 4 hrs; assay type: ADME, cell-free; conditions: read-out: Stability
[45] = target: Voltage-gated inwardly rectifying potassium channel KCNH2 (Homo sapiens, UniProt Q12809); assay: Inhibition of human ERG transfected in CHO cells by patch clamp method
Klebsiella pneumoniae [46] = assay: Antibacterial activity against Klebsiella pneumoniae 1161486 after 20 to 22 hrs; assay type: functional
Staphylococcus aureus [47] = assay: Resistance factor, ratio of MIC for Staphylococcus aureus RN4220 harboring ParC S80F mutant to MIC for wild type Staphylococcus aureus RN4220; assay type: functional
Escherichia coli [48] = assay: Antibacterial activity against ESBL producing Escherichia coli ATCC 35218 after 20 to 22 hrs; assay type: functional
Klebsiella pneumoniae [49] = assay: Antibacterial activity against Klebsiella pneumoniae 1161486 harboring GyrA S83I mutant after 20 to 22 hrs; assay type: functional
Staphylococcus aureus [50] = assay: Resistance factor, ratio of MIC for Staphylococcus aureus RN4220 harboring GyrA D83N/ParC D79N double mutant to MIC for wild type Staphylococcus aureus RN4220; assay type: functional
Staphylococcus aureus [51] = assay: Antibacterial activity against Staphylococcus aureus RN4220 harboring ParC S80F/GyrA S84L double mutant after 20 to 22 hrs; assay type: functional

T1 sequence (P08684 whole entry): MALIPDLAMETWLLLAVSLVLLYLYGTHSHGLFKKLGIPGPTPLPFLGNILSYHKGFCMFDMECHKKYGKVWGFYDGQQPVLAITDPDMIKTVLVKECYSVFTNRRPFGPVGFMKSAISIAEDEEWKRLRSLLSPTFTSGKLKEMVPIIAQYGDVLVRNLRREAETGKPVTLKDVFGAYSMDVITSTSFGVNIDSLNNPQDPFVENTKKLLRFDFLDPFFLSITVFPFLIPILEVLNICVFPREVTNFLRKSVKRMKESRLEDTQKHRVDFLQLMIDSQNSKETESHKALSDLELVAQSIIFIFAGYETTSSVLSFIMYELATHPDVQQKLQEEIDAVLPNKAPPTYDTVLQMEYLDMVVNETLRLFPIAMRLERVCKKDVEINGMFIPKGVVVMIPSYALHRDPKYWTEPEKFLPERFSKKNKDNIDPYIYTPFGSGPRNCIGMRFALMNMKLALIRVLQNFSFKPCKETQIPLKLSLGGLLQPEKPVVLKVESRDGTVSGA
Sequence of Voltage-gated inwardly rectifying potassium channel KCNH2 (Q12809 whole entry): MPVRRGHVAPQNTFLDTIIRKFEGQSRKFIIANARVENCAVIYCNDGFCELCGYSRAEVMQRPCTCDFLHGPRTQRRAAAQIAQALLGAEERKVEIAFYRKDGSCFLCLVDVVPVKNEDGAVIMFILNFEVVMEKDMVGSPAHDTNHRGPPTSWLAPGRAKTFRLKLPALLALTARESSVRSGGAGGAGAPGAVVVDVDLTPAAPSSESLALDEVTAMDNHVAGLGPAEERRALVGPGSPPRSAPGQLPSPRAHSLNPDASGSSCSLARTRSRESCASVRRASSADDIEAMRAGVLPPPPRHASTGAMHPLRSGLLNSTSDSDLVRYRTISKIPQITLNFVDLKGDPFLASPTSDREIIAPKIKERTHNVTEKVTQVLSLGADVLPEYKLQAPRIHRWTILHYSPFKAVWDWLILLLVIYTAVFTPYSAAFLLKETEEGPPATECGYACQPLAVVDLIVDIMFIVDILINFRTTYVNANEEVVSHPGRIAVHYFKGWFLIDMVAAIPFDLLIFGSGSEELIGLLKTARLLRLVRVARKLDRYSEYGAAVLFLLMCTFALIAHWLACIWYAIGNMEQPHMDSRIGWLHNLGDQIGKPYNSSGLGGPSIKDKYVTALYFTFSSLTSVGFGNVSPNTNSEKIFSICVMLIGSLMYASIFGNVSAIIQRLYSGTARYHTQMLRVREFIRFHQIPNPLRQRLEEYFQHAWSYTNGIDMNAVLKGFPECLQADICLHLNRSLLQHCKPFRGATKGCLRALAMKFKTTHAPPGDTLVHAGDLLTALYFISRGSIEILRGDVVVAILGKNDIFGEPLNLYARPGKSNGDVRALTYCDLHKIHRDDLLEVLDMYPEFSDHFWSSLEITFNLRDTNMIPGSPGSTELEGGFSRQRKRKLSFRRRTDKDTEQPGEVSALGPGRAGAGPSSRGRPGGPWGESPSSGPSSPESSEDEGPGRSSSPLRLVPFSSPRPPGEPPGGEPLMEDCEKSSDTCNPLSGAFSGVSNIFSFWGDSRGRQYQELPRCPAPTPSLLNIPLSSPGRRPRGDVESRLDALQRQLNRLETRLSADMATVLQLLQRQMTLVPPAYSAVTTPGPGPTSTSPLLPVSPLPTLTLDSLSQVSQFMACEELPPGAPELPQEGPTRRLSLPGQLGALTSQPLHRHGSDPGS

Structure (SMILES): N[C@H]1CCN(c2cc3c(cc2F)n2ccnc2c(=O)n3C2CC2)C1
- remaining at 4 h, 1 µM [1]: 80 to 120%
- Activity (L5178Y [2]): Toxic
- inhibition (Escherichia coli [3]): Active
- MIC (Klebsiella pneumoniae [4]): 64 µg/mL (≈ 196 µM)
- Ratio (Klebsiella pneumoniae [5]): 4
- MIC (Escherichia coli [6]): 2 µg/mL (≈ 6.11 µM)
- MIC (Escherichia coli [7]): 8 µg/mL (≈ 24.4 µM)
- metabolised at 20 min, 5 µM [8]: 11%
- Ratio (Staphylococcus aureus [9]): 1
- metabolised at 20 min, 5 µM [10]: 8%
- MIC (Staphylococcus aureus [11]): 4 µg/mL (≈ 12.2 µM)
- Ratio (Staphylococcus aureus [12]): 4
- MIC (Escherichia coli [13]): 0.125 µg/mL (≈ 0.382 µM)
- MIC (Pseudomonas aeruginosa [14]): 32 µg/mL (≈ 97.8 µM)
- Ratio (Klebsiella pneumoniae [15]): 8
- IC50 (Cytochrome P450 3A4 [16]): > 30 µM
- MIC (Klebsiella pneumoniae [17]): 128 µg/mL (≈ 391 µM)
- MIC (Pseudomonas aeruginosa [18]): < 0.125 µg/mL
- MIC (Acinetobacter baumannii [19]): 4 to 8 µg/mL (≈ 12.2 to 24.4 µM)
- Ratio (Staphylococcus aureus [20]): 1
- MIC (Staphylococcus aureus [21]): 4 µg/mL (≈ 12.2 µM)
- MIC (Klebsiella pneumoniae [22]): 0.5 µg/mL (≈ 1.53 µM)
- CC50 at 40 h [23]: > 30 µM
- Ratio (Klebsiella pneumoniae [24]): 4
- Ratio (Escherichia coli [25]): 32
- Activity (Staphylococcus aureus [26]): Active
- Activity (Staphylococcus aureus [27]): Active
- MIC (Escherichia coli [28]): < 0.125 µg/mL
- Ratio (Escherichia coli [29]): 64
- IC50 (Cytochrome P450 3A4 [30]): > 30 µM
- Papp [31]: 0.4 ×10⁻⁶ cm/s
- MIC (Staphylococcus aureus [32]): 8 µg/mL (≈ 24.4 µM)
- IC50 (DNA gyrase): 1.19 µM
- Ratio (Escherichia coli [33]): 8
- MIC (Staphylococcus aureus [34]): 8 µg/mL (≈ 24.4 µM)
- metabolised at 20 min, 5 µM [35]: 6%
- Activity (L5178Y [36]): Toxic
- MIC (Klebsiella pneumoniae [37]): 16 µg/mL (≈ 48.9 µM)
- solubility thermodynamic [38]: 1130 µg/mL (≈ 3460 µM)
- MIC (Acinetobacter baumannii [39]): > 64 µg/mL
- MIC (Escherichia coli [40]): 512 µg/mL (≈ 1560 µM)
- MIC (Staphylococcus aureus [41]): 4 µg/mL (≈ 12.2 µM)
- MIC (Staphylococcus aureus [42]): 16 µg/mL (≈ 48.9 µM)
- MIC (Escherichia coli [43]): 2 µg/mL (≈ 6.11 µM)
- remaining at 4 h, 1 µM [44]: 80 to 120%
- IC50 [45]: > 30 µM
- MIC (Klebsiella pneumoniae [46]): 32 µg/mL (≈ 97.8 µM)
- Ratio (Staphylococcus aureus [47]): 2
- MIC (Escherichia coli [48]): 4 µg/mL (≈ 12.2 µM)
- MIC (Klebsiella pneumoniae [49]): 64 µg/mL (≈ 196 µM)
- Ratio (Staphylococcus aureus [50]): 4
- MIC (Staphylococcus aureus [51]): 16 µg/mL (≈ 48.9 µM)

Source: ChEMBL document CHEMBL4177750, “Imidazopyrazinones (IPYs): Non-Quinolone Bacterial Topoisomerase Inhibitors Showing Partial Cross-Resistance with Quinolones” (J Med Chem, 2018)
